In patent US20180214400A1, “THE USE OF KAURANES COMPOUNDS IN THE MANUFACTURE OF MEDICAMENT FOR TREATMENT OF CADIAC HYPERTROPY AND PULMONARY HYPERTENSION” (KEY-PHARMA BIOMEDICAL INC., priority 2015, published 2018):

What was measured:
[1] = tested on: hypoxia-induced PHT in rats; conditions: chronic hypoxia; cited from earlier work
[2] = tested on: embolic middle cerebral artery occlusion; conditions: oral, seven consecutive days starting 2 h or 24 h after occlusion; cited from earlier work
TAC rats = experiment: Left ventricular pressure-volume relationship in TAC rats; type: in vivo; conditions: 3 or 9 weeks
Method: The left ventricular pressure and volume were measured simultaneously. Tow parameters can be derived by studying of the relationship of pressure-volume during changes of either preload or afterload. ESPVR, the slope of end-systolic pressure-volume relationships which represent end-systolic elastics; EDPVR, the slope of end-diastolic pressure-volume relationship which, represents cardiac stiffness. In hypertrophy hearts after 3 or 9 weeks TAC, the cardiac pump dysfunction was manifested by a significant decreased ESPVR and increased in EDPVR. […] Therefore, compound A are useful to preserve a normal elasticity during contraction and reduce diastolic stiffness of hearts with high pressure load as in TAC rats.
Heart hemodynamic Analysis was conducted by pressure-volume (PV) catheter. Rats were anesthetized and placed on a warming pad (37° C.). Underwent tracheostomy, rats were then ventilated by using a positive pressure with a tidal volume of 4-6 ml/200 g at 70 breaths/min using room air. […] After stabilization of the signal for 10-15 min, baseline PV loops were recorded at a steady state. […] After data were recorded under steady-state conditions and during preload reduction, parallel conductance values were obtained by the injection of 40 μl hypertonic saline (30%) into the right jugular vein. […] Data were recorded on separate channels of the PowerLab system. […]

[3] = tested on: neonatal rat cardiac fibroblasts; experiment: TGF-β induced proliferation of cardiac fibroblasts (MTT); type: cell-based; conditions: cultured neonatal rat cardiac fibroblasts
Source text: This invention disclosed that compound A can prevent TGF-β induced proliferation in cultured neonatal rat cardiac fibroblasts. Furthermore, this invention disclosed that there were a significant increase in cGMP levels in compound A treated cardiac fibroblasts which is related to its anti-hypertrophy and anti-fibrosis roles.
Neonatal rat cardiac fibroblasts were isolated from 1-2-day-old Sprague-Dawley rats as described previously. Briefly, hearts from newborn 1-2-day-old Sprague-Dawley rats were minced on ice, and cells were isolated by trypsin incubation at 37° C. Non-cardiomyocytes were separated from the cardiomyocytes by differential pre-plating, and then cardiomyocytes were removed with fibroblasts seeded in culture dishes. The cells were passaged after 3 days, using a 0.05% trypsin solution. Cells were cultured in DEME/F12 medium with 5% fetal calf serum, and maintained at 37° C., 5% CO2 condition.
Viability of cardiac fibroblast in culture was assessed using the 3-(4,5-dimethylthiazol-2-yl)-2,5-diphenyltetrazolium bromide (MTT) method. The assay measures the ability of an active mitochondrial enzyme to reduce the MTT substrate (yellow to blue) in live cells. Isolated primary cardiac fibroblasts were plated in serum-free conditions on 96-well plates. […] Absorbance was measured at 460 nm.

microRNA21 = microRNA21 and fibrosis at penumbra region of ischemic heart; type: in vivo
Source text: This effect of compound A has never been reported in prior art.

BNP = experiment: Isoproterenol-induced cardiomyocyte hypertrophy (BNP RT-PCR, western blot, size); type: cell-based
Source text: BNP is an important marker for hypertrophy.

[4] = tested on: ROS (reactive oxygen species); experiment: ROS in cytosol and mitochondria of cardiomyocytes; type: cell-based; conditions: cardiomyocytes hypertrophy
Source text: In this invention, we disclosed that compound A could suppress cardiomyocytes hypertrophy by reducing ROS (reactive oxygen species) in either cytosol and mitochondria in addition to the inhibition of PED, while classic PED inhibitor such as sildenafil has no such effects been reported in prior arts. This explains the superiority of compound A over sildenafil in suppressing hypertrophy and other diseases. This invention disclosed a new use of compound A as PED inhibitor with novel mechanism which is different than what been disclosed in prior art.

male rats = experiment: Penile erection in male rats; type: in vivo; conditions: relative higher dose
[5] = tested on: cerebral I/R injured rats; experiment: Late phase cerebral I/R injury (7 days) in rats; type: in vivo; conditions: 7 days after I/R
Method: Reactive astrogliosis is a common pathological process in late phase of cerebral I/R injury, which contributes to further neuronal damages. It is also seen in neuronal degenerative disease such as Alzheimer's disease in the present invention, compound A given consecutively for 7 days in cerebral I/R injured rats. […] The therapeutic effects of either single or consecutive 7 treatments with compound A were Analyzed and compared at 7 days after I/R injury.

[6] = tested on: cerebral ischemia/reperfusion (I/R) injury; conditions: within 24 hours; cited from earlier work

Row | SMILES | rise in pulmonary artery pressure and vascular remodeling [1] | infarct volume [2] | neurological recovery [2] | deteriorations in ESPVR and EDPVR (TAC rats) | TGF-β induced proliferation [3] | fibrosis at the same region (microRNA21) | microRNA21 (microRNA21; penumbra region of the ischemic heart) | increase of BNP production and BNP mRNA expression (BNP; cardiomyocytes, isoproterenol stimulus) | increased size of myocardium induced by isoproterenol (BNP; isoproterenol) | ROS in cytosol and mitochondria [4] | penile erection (male rats) | I/R injury, consecutive 7 treatments comparing to single treatment [5] | accumulation of activated astrocytes ([5]; consecutive treatments) | infarct volume ([5]; given consecutively for 7 days) | neurological behavior and cellular morphology ([5]; given consecutively for 7 days) | neuronal survival ([5]; given consecutively for 7 days) | protection against cerebral I/R injury [6]
1 | CCCc1nn(C)c2c(=O)[nH]c(-c3cc(S(=O)(=O)N4CCN(C)CC4)ccc3OCC)nc12 [sildenafil, reference compound] | attenuated | without any effect | significantly enhanced |  |  |  |  |  |  |  |  |  |  |  |  |  | 
2 | C[C@@]12CC[C@@H]3[C@@](CC[C@H]4[C@@]3(C)CCC[C@@]4(C)C(=O)O)(CC1=O)C2 [Compound A, (4α,8β,13β)-13-methyl-16-oxo-17-norkauran-18-oic acid] |  |  |  | prevented the deteriorations | prevent | significant amelioration | significant reduced | greatly reduce | significantly reduce | reducing | long lasting penile erection | significantly improved | significantly inhibited | reduction | improvement | enhancement | protect
